From patent US4156724A, “N-acylamino-alpha-arylacetamido cephalosporins and antibacterial compositions and methods containing them” (Sumitomo Chemical Company, Limited, priority 1974, dated 1979)
In brackets after ≈: the same amount, converted by molar mass.

Assays:
Type in all cases: cell-based
[1] = system: Staphylococcus aureus FS 289; assay: Minimum Inhibitory Concentration, Staphylococcus aureus FS 289; settings: Staphylococcus aureus FS 289, strain resistant to penicillin; for MIC: FS289, read-out: Minimum Inhibitory Concentration
Description: (§1) anti-microbial activity tests were carried out on the compounds obtained in the Examples.
*Staphylococcus aureus FS 289: strain resistant to penicillin

[2] = system: Klebsiella pneumoniae 602; assay: Minimum Inhibitory Concentration, Klebsiella pneumoniae 602; settings: for MIC: Klebsiella pneumoniae, 602, Klebsiella pneumoniae 602, read-out: Minimum Inhibitory Concentration
Description: as §1

[3] = system: Enterobacter aerogeneus No. 75; assay: Minimum Inhibitory Concentration, Enterobacter aerogeneus No. 75; settings: Enterobacter aerogeneus No. 75; for MIC: read-out: Minimum Inhibitory Concentration
Description: as §1

[4] = system: Pseudomonas aeruginosa 104; assay: Minimum Inhibitory Concentration, Pseudomonas aeruginosa 104; settings: Pseudomonas aeruginosa 104; for MIC: read-out: Minimum Inhibitory Concentration
Description: as §1

[5] = system: Staphylococcus aureus 209 P; assay: Minimum Inhibitory Concentration, Staphylococcus aureus 209 P; settings: Staphylococcus aureus 209 P; for MIC: read-out: Minimum Inhibitory Concentration
Description: as §1

[6] = system: Serratia No. 72; assay: Minimum Inhibitory Concentration, Serratia No. 72
Description: as §1

[7] = system: Escherichia coli NIHJ; assay: Minimum Inhibitory Concentration, Escherichia coli NIHJ; settings: Escherichia coli NIHJ; for MIC: read-out: Minimum Inhibitory Concentration
Description: as §1

[8] = system: Proteus vulgaris HX 19; assay: Minimum Inhibitory Concentration, Proteus vulgaris HX 19; settings: Proteus vulgaris HX 19; for MIC: HX19, read-out: Minimum Inhibitory Concentration
Description: as §1

Row | Structure (SMILES) | MIC [1] [µg/mL] | MIC [2] [µg/mL] | MIC [3] [µg/mL] | MIC [4] [µg/mL] | MIC [5] [µg/mL] | MIC [6] [µg/mL] | MIC [7] [µg/mL] | MIC [8] [µg/mL] | Minimum Inhibitory Concentration [1] [µg/mL] | Minimum Inhibitory Concentration ([2]; Klebsiella pneumoniae 602) [µg/mL] | Minimum Inhibitory Concentration [3] [µg/mL] | Minimum Inhibitory Concentration [4] [µg/mL] | Minimum Inhibitory Concentration [5] [µg/mL] | Minimum Inhibitory Concentration [6] [µg/mL] | Minimum Inhibitory Concentration [7] [µg/mL] | Minimum Inhibitory Concentration [8] [µg/mL]
1 | Cn1nnnc1SCC1=C(C(=O)O)N2C(=O)C(NC(=O)[C@H](NC(=O)c3cnccc3O)c3ccc(O)cc3)C2SC1 (stereo partly drawn) [Example 126, 7-[D-α-(4-Hydroxypyridine-3-carbonamido)-α-p-hydroxyphenylacetamido]-3-(1-methyltetrazol-5-yl)thiomethyl-3-cephem-4-carboxylic acid] | 6.25 (≈ 10.4 µM) | 12.5 (≈ 20.9 µM) | 12.5 (≈ 20.9 µM) | 6.25 (≈ 10.4 µM) | 0.39 (≈ 0.651 µM) | 100 (≈ 167 µM) | 6.25 (≈ 10.4 µM) | 0.2 (≈ 0.334 µM) |  |  |  |  |  |  |  | 
2 | Nc1cccc(C(NC(=O)c2ccnnc2O)C(=O)NC2C(=O)N3C(C(=O)O)=C(CSc4ccc(O)nn4)CSC23)c1 (stereo not shown) [Example 87] | 6.25 (≈ 10.2 µM) | 6.25 (≈ 10.2 µM) | 12.5 (≈ 20.5 µM) | 12.5 (≈ 20.5 µM) | 0.78 (≈ 1.28 µM) | 50 (≈ 81.9 µM) | 12.5 (≈ 20.5 µM) | 0.78 (≈ 1.28 µM) |  |  |  |  |  |  |  | 
3 | CC(=O)OCC1=C(C(=O)O)N2C(=O)[C@@H](NC(=O)[C@H](NC(=O)c3cccnc3O)c3ccc(NC(N)=O)cc3)[C@H]2SC1 [Example 3] | 6.25 (≈ 10.7 µM) | 25 (≈ 42.8 µM) | 25 (≈ 42.8 µM) | 12.5 (≈ 21.4 µM) | 0.39 (≈ 0.667 µM) | > 200 | 25 (≈ 42.8 µM) | 0.39 (≈ 0.667 µM) |  |  |  |  |  |  |  | 
4 | Cn1nnnc1SCC1=C(C(=O)O)N2C(=O)C(NC(=O)C(NC(=O)c3cnccc3O)c3ccc(CO)cc3)C2SC1 (stereo not shown) [Example 91] | 6.25 (≈ 10.2 µM) | 12.5 (≈ 20.4 µM) | 25 (≈ 40.8 µM) | 12.5 (≈ 20.4 µM) | 0.78 (≈ 1.27 µM) | 50 (≈ 81.6 µM) | 12.5 (≈ 20.4 µM) | 0.39 (≈ 0.637 µM) |  |  |  |  |  |  |  | 
5 | CC(=O)OCC1=C(C(=O)O)N2C(=O)[C@@H](NC(=O)[C@H](NC(=O)c3cnc(O)nc3O)c3ccc(NC(N)=O)cc3)[C@H]2SC1 [Example 6] | 6.25 (≈ 10.4 µM) | 12.5 (≈ 20.8 µM) | 25 (≈ 41.6 µM) | 12.5 (≈ 20.8 µM) | 0.39 (≈ 0.648 µM) | 200 (≈ 332 µM) | 12.5 (≈ 20.8 µM) | 0.2 (≈ 0.332 µM) |  |  |  |  |  |  |  | 
6 | Cc1nc2ncc(C(=O)NC(C(=O)NC3C(=O)N4C(C(=O)O)=C(CSc5nnnn5C)CSC34)c3ccc(CO)cc3)c(O)c2nc1C (stereo not shown) [Example 105] | 6.25 (≈ 9.02 µM) | 3.13 (≈ 4.52 µM) | 12.5 (≈ 18 µM) | 6.25 (≈ 9.02 µM) | 0.78 (≈ 1.13 µM) | 12.5 (≈ 18 µM) | 6.25 (≈ 9.02 µM) | 0.2 (≈ 0.289 µM) |  |  |  |  |  |  |  | 
7 | Cc1nnc(SCC2=C(C(=O)O)N3C(=O)[C@@H](NC(=O)[C@H](NC(=O)c4ccnnc4O)c4cccc(NC(N)=O)c4)[C@H]3SC2)s1 [Example 15] | 6.25 (≈ 9.5 µM) | 3.13 (≈ 4.76 µM) | 6.25 (≈ 9.5 µM) | 6.25 (≈ 9.5 µM) | 0.39 (≈ 0.593 µM) | 50 (≈ 76 µM) | 12.5 (≈ 19 µM) | 0.1 (≈ 0.152 µM) |  |  |  |  |  |  |  | 
8 | Cn1nnnc1SCC1=C(C(=O)[O-])N2C(=O)C(NC(=O)C(NC(=O)c3cnc4cccnc4c3O)c3cccc(N)c3)C2SC1.[Na+] (stereo not shown) [Example 55] |  |  |  |  |  |  |  |  | 3.13 | 3.13 | 3.13 | 3.13 | 0.78 | 12.5 | 1.56 | 0.1
9 | Cn1nnnc1SCC1=C(C(=O)O)N2C(=O)C(NC(=O)C(NC(=O)c3cnc4cccnc4c3O)c3ccc(CO)cc3)C2SC1 (stereo not shown) [Example 97] | 6.25 (≈ 9.42 µM) | 1.56 (≈ 2.35 µM) | 6.25 (≈ 9.42 µM) | 6.25 (≈ 9.42 µM) | 1.56 (≈ 2.35 µM) | 25 (≈ 37.7 µM) | 1.56 (≈ 2.35 µM) | 0.2 (≈ 0.301 µM) |  |  |  |  |  |  |  | 
10 | O=C(O)C1=C(CSc2nnc(CO)s2)CSC2C(NC(=O)C(NC(=O)c3cnccc3O)c3ccc(CO)cc3)C(=O)N12 (stereo not shown) [Example 110] | 6.25 (≈ 9.69 µM) | 12.5 (≈ 19.4 µM) | 25 (≈ 38.8 µM) | 12.5 (≈ 19.4 µM) | 0.78 (≈ 1.21 µM) | 100 (≈ 155 µM) | 12.5 (≈ 19.4 µM) | 0.39 (≈ 0.605 µM) |  |  |  |  |  |  |  | 
11 | NC(=O)Nc1cccc([C@@H](NC(=O)c2cnc3cccnc3c2O)C(=O)N[C@@H]2C(=O)N3C(C(=O)O)=C(CSc4ccc(O)nn4)CS[C@H]23)c1 [Example 37] | 6.25 (≈ 8.88 µM) | 1.56 (≈ 2.22 µM) | 6.25 (≈ 8.88 µM) | 3.13 (≈ 4.45 µM) | 0.78 (≈ 1.11 µM) | 12.5 (≈ 17.8 µM) | 1.56 (≈ 2.22 µM) | 0.2 (≈ 0.284 µM) |  |  |  |  |  |  |  | 
12 | Cc1nnc(SCC2=C(C(=O)O)N3C(=O)[C@@H](NC(=O)[C@H](NC(=O)c4ccnnc4O)c4ccc(NC(N)=O)cc4)[C@H]3SC2)s1 [Example 16] | 6.25 (≈ 9.5 µM) | 3.13 (≈ 4.76 µM) | 6.25 (≈ 9.5 µM) | 6.25 (≈ 9.5 µM) | 0.39 (≈ 0.593 µM) | 50 (≈ 76 µM) | 6.25 (≈ 9.5 µM) | 0.2 (≈ 0.304 µM) |  |  |  |  |  |  |  | 

Now from value to compound, other results behind:

Row | MIC [1] [µg/mL] | MIC [2] [µg/mL] | MIC [3] [µg/mL] | MIC [4] [µg/mL] | MIC [5] [µg/mL] | MIC [6] [µg/mL] | MIC [7] [µg/mL] | MIC [8] [µg/mL] | Structure (SMILES) | Minimum Inhibitory Concentration [1] [µg/mL] | Minimum Inhibitory Concentration ([2]; Klebsiella pneumoniae 602) [µg/mL] | Minimum Inhibitory Concentration [3] [µg/mL] | Minimum Inhibitory Concentration [4] [µg/mL] | Minimum Inhibitory Concentration [5] [µg/mL] | Minimum Inhibitory Concentration [6] [µg/mL] | Minimum Inhibitory Concentration [7] [µg/mL] | Minimum Inhibitory Concentration [8] [µg/mL]
13 | 6.25 (≈ 9.91 µM) | 6.25 (≈ 9.91 µM) | 12.5 (≈ 19.8 µM) | 12.5 (≈ 19.8 µM) | 0.39 (≈ 0.618 µM) | 50 (≈ 79.3 µM) | 6.25 (≈ 9.91 µM) | 0.2 (≈ 0.317 µM) | O=C(O)C1=C(CSc2nnc(CO)s2)CSC2C(NC(=O)C(NC(=O)c3cnccc3O)c3ccc(O)cc3)C(=O)N12 (stereo not shown) [Example 176] |  |  |  |  |  |  |  | 
14 | 3.13 (≈ 4.58 µM) | 1.56 (≈ 2.28 µM) | 3.13 (≈ 4.58 µM) | 6.25 (≈ 9.14 µM) | 0.78 (≈ 1.14 µM) | 25 (≈ 36.5 µM) | 3.13 (≈ 4.58 µM) | 0.1 (≈ 0.146 µM) | Cn1nnnc1SCC1=C(C(=O)O)N2C(=O)C(NC(=O)[C@H](NC(=O)c3cnc4cccnc4c3O)c3ccc(O)c(Cl)c3)C2SC1 (stereo partly shown) [Example 132] |  |  |  |  |  |  |  | 
15 | 6.25 (≈ 9.66 µM) | 12.5 (≈ 19.3 µM) | 12.5 (≈ 19.3 µM) | 6.25 (≈ 9.66 µM) | 0.78 (≈ 1.21 µM) | 50 (≈ 77.3 µM) | 6.25 (≈ 9.66 µM) | 0.78 (≈ 1.21 µM) | O=C(O)C1=C(CSc2nnc(CO)s2)CSC2C(NC(=O)C(NC(=O)c3cnccc3O)c3ccc(O)c(O)c3)C(=O)N12 (stereo not shown) [Example 184] |  |  |  |  |  |  |  | 
16 | 6.25 (≈ 9.17 µM) | 1.56 (≈ 2.29 µM) | 6.25 (≈ 9.17 µM) | 3.13 (≈ 4.59 µM) | 0.78 (≈ 1.14 µM) | 12.5 (≈ 18.3 µM) | 1.56 (≈ 2.29 µM) | 0.2 (≈ 0.293 µM) | O=C(O)C1=C(CSc2nnc(CO)s2)CSC2C(NC(=O)C(NC(=O)c3cnc4cccnc4c3O)c3cccc(O)c3)C(=O)N12 (stereo not shown) [Example 181] |  |  |  |  |  |  |  | 
17 | 12.5 (≈ 17.9 µM) | 3.13 (≈ 4.49 µM) | 6.25 (≈ 8.97 µM) | 3.13 (≈ 4.49 µM) | 0.78 (≈ 1.12 µM) | 25 (≈ 35.9 µM) | 1.56 (≈ 2.24 µM) | 1.56 (≈ 2.24 µM) | CSc1cnc2c(O)c(C(=O)N[C@@H](C(=O)NC3C(=O)N4C(C(=O)O)=C(CSc5nnnn5C)CSC34)c3ccc(O)cc3)cnc2n1 (stereo partly shown) [Example 146] |  |  |  |  |  |  |  | 
18 | 12.5 (≈ 18.8 µM) | 1.56 (≈ 2.34 µM) | 3.13 (≈ 4.7 µM) | 3.13 (≈ 4.7 µM) | 0.78 (≈ 1.17 µM) | 12.5 (≈ 18.8 µM) | 3.13 (≈ 4.7 µM) | 0.39 (≈ 0.586 µM) | Cn1nnnc1SCC1=C(C(=O)O)N2C(=O)C(NC(=O)C(NC(=O)c3cnc4ccc(O)nc4c3O)c3ccc(O)cc3)C2SC1 (stereo not shown) [Example 174] |  |  |  |  |  |  |  | 
19 | 12.5 (≈ 17.4 µM) | 3.13 (≈ 4.35 µM) | 6.25 (≈ 8.68 µM) | 3.13 (≈ 4.35 µM) | 1.56 (≈ 2.17 µM) | 25 (≈ 34.7 µM) | 3.13 (≈ 4.35 µM) | 1.56 (≈ 2.17 µM) | Cn1nnnc1SCC1=C(C(=O)O)N2C(=O)C(NC(=O)[C@H](NC(=O)c3cnc4nc(N5CCCC5)cnc4c3O)c3ccc(O)cc3)C2SC1 (stereo partly shown) [Example 147] |  |  |  |  |  |  |  | 
20 | 6.25 (≈ 9.62 µM) | 1.56 (≈ 2.4 µM) | 3.13 (≈ 4.82 µM) | 3.13 (≈ 4.82 µM) | 0.78 (≈ 1.2 µM) | 12.5 (≈ 19.2 µM) | 3.13 (≈ 4.82 µM) | 0.1 (≈ 0.154 µM) | Cn1nnnc1SCC1=C(C(=O)O)N2C(=O)C(NC(=O)C(NC(=O)c3cnc4cccnc4c3O)c3cccc(O)c3)C2SC1 (stereo not shown) [Example 180] |  |  |  |  |  |  |  | 
